Measurements published in patent US20220105150A1, “AMPHIPATHIC ALPHA-HELICAL ANTIMICROBIAL PEPTIDES TREAT INFECTIONS BY GRAM-NEGATIVE PATHOGENS” (priority 2019, published 2022).
Converted amounts (≈) assume the structure as drawn. Where two headings read alike, the source gives them in different places.

What was measured:
[1] = tested on: Acinetobacter baumannii strains resistant to Polymyxin B and Colistin; conditions: 24 h
Description: (§1) The coupling procedure used 5 equivalents of Fmoc-D-amino acid or Fmoc-L-amino acid and HCTU (O-(1H-6-chlorobenzotriazole-1-yl)-1,1,3,3-tetramethyluronium hexafluorophosphate) and 6-Cl-HOBt (1-hydroxy-6-chloro-benztriazole) at 4.5 equivalents in DMF (Fisher Scientific, Denver, Colo.) and N-diisopropylethylamine (DIPEA) 10 equivalents (Oakwood Products, Inc., Estill, S.C.) in N-methyl-2-pyrrolidinone (NMP) (Fisher Scientific, Denver, Colo.) with the first and second couplings at room temperature for 30 min each. The deprotection procedure (removal of Fmoc protecting group) was carried out by treatment of the resin with 0.1 M HOBt (1-hydroxybenzotriazole) in DMF with 20% piperidine for 30 min. […] The resin was removed by filtration and peptide was precipitated with ice-cooled ethyl ether on ice for 15 min. Ether was decanted, the peptide was washed twice with ether and redissolved in acetonitrile/water (1:1, with 0.2% TFA) and the solution lyophilized to obtain the crude peptide. • Analytical and Preparative Purification by Reversed-Phase Chromatography: Analytical RP-HPLC: Column, Luna C18 (2), 250×4.6 mm I.D., 5 μm particle size, 100 Å pore size from Phenomenex (Torrance, Calif.). Run conditions: linear AB gradient (1% acetonitrile/min, starting from 2% acetonitrile) at a flow-rate of 1 ml/min, where eluent A is 0.2% aq. TFA and eluent B is 0.18% TFA in acetonitrile; temperature, 30° C. Preparative RP-HPLC: Peptides were dissolved in 0.2% aq. TFA containing 2% acetonitrile to a final concentration of 10 mg/ml. Following filtration through a 0.45 μm Millipore filter and subsequently through a 0.22 μm filter, the peptide solutions were loaded onto the column via multiple 20-ml injections into a 20-ml injection loop at a flow-rate of 10 ml/min. Column, Luna C18 (2), 250×30 mm I.D., 5 um particle size, 100 Å pore size from Phenomenex. Run conditions: 2% acetonitrile/min gradient up to an acetonitrile concentration 10% below that required to elute the peptide during analytical RP-HPLC, then shallow gradient elution (0.05% or 0.1% acetonitrile/min depending on the complexity of impurities near the product of interest on the analytical run of the crude peptide) at a flow-rate of 10 ml/min (same eluents as shown above for analytical RP-HPLC); at room temperature. • Temperature Profiling of Peptides on Reversed-phase HPLC to Measure Dimerization and Oligomerization: Purified peptides were analyzed on an Agilent 1200 series liquid chromatograph for temperature profiling using a Zorbax 300 SB-C8 column (150 mm×2.1 mm I.D.; 5 μm particle size, 300 Å pore size) from Agilent Technologies. […] Temperature profiling was carried out on peptide mixtures run at each temperature in 2° C. increments from 5° C. to 41° C. and 10° C. increments from 5° C. to 75° C. Twenty minutes was allowed between runs for temperature equilibration. • Characterization of Helical Structure: The mean residue molar ellipticities of peptides were determined by circular dichroism (CD) spectroscopy, using a Jasco J-815 spectropolarimeter (Jasco Inc. Easton, Md., USA) at 5° C. under KP buffer (50 mM NaH2PO4/Na2HPO4/100 mM KCl, pH 7.0) as well as in the presence of an α-helix inducing solvent, 2,2,2-trifluoroethanol, TFE, (50 mM NaH2PO4/Na2HPO4/100 mM KCl, pH 7.0 buffer/50% TFE). A 10-fold dilution of an approximately 500 μM stock solution of the peptide analogs was loaded into a 0.1 cm quartz cell and its ellipticity scanned from 195 to 250 nm.

[2] = tested on: Acinetobacter baumannii isolates resistant to classical antibiotics; assay type: cell-based
Description: Thus, shortening the number of carbon atoms between the side-chain amino group and the α-carbon atom from four (Lys) to one (diaminopropionic acid) had very little effect on antibacterial activity (Table 2). We also determined the antibacterial activity of our five AMPs against 20 additional Acinetobacter baumannii isolates from four continents, 12 different countries and 17 different cities that were resistant to 18 different antibiotics. […] Thus, it is very clear that changing the type of positively-charged residue on the polar face of these AMPs had very little effect on the antibacterial activities.

A. baumannii strain 649 = assay type: cell-based, Acinetobacter baumannii; conditions: MH medium, no serum
Method: Hemoglobin release was determined spectrophotometrically at 570 nm.
Because only unbound AMP is available to interact with the therapeutic target, the extent of binding between AMPs and serum proteins can have significant effects on efficacy of these drugs. […] This assay estimates the in vivo bioavailability of our AMPs. […] An increase in MIC in the presence of serum is attributed to inhibition of antimicrobial activity due to binding to serum proteins.

human red blood cells = test: Hemolytic activity on human red blood cells
Method: For comparison, the inventors also determined the hemolytic activity after 18 hours at 37° C. Hemolysis can be determined with red blood cells (RBC) from various species including human red blood cells (hRBC).
as §1

[3] = target: the molecule itself; test: RP-HPLC temperature profiling (self-association)
[4] = strains resistant to Polymyxin B and Colistin
[5] = isolates resistant to classical antibiotics

## CC(=O)N[C@H](CCCCN)C(=O)N[C@H](CC(C)C)C(=O)N[C@H](CCCN)C(=O)N[C@H](CO)C(=O)N[C@H](CC(C)C)C(=O)N[C@H](CC(C)C)C(=O)N[C@H](CCCN)C(=O)N[C@@H](C(=O)N[C@H](CC(C)C)C(=O)N[C@H](CO)C(=O)N[C@H](CCCN)C(=O)N[C@H](C)C(=O)N[C@H](C)C(=O)N[C@H](C)C(=O)N[C@H](C)C(=O)N[C@H](C)C(=O)N[C@H](CC(C)C)C(=O)N[C@H](CCCN)C(=O)N[C@@H](C(=O)N[C@H](CC(C)C)C(=O)N[C@H](CC(C)C)C(=O)N[C@H](CCCN)C(=O)N[C@H](C)C(=O)N[C@H](CC(C)C)C(=O)N[C@H](CO)C(=O)N[C@H](CCCN)C(N)=O)[C@H](C)O)[C@H](C)O [D85(K13A/K16A)-(Lys^1-6Orn-1), Ac-KL(Orn)SLL(Orn)TLS(Orn)AAAAAL(Orn)TLL(Orn)ALS(Orn)-amide]
[1]; strain MB9941, Mueller-Hinton medium, 37° C.
  MIC MB9941: 2.9 µM (≈ 7.74 µg/mL)
[1]; strain MB9949, Mueller-Hinton medium, 37° C.
  MIC MB9949: 2.9 µM (≈ 7.74 µg/mL)
[1]; strain MB9951, Mueller-Hinton medium, 37° C.
  MIC MB9951: 1.5 µM (≈ 4 µg/mL)
[1]; strain MB9952, Mueller-Hinton medium, 37° C.
  MIC MB9952: 1.5 µM (≈ 4 µg/mL)
[1]; strain MB9953, Mueller-Hinton medium, 37° C.
  MIC MB9953: 1.5 µM (≈ 4 µg/mL)
[1]; strain MB9955, Mueller-Hinton medium, 37° C.
  MIC MB9955: 1.5 µM (≈ 4 µg/mL)
[1]; strain MB9963, Mueller-Hinton medium, 37° C.
  MIC MB9963: 2.9 µM (≈ 7.74 µg/mL)
[2]; strain 101887 (lower line)
  MIC 101887: 3.0 µM (≈ 8 µg/mL)
[2]; strain 961997 (lower line)
  MIC 961997: 1.5 µM (≈ 4 µg/mL)
[2]; strain 963618 (lower line)
  MIC 963618: 1.5 µM (≈ 4 µg/mL)
[2]; strain 964304 (lower line)
  MIC 964304: 1.5 µM (≈ 4 µg/mL)
[2]; strain 977751 (lower line)
  MIC 977751: 6.0 µM (≈ 16 µg/mL)
[2]; strain 981653 (lower line)
  MIC 981653: 1.5 µM (≈ 4 µg/mL)
[2]; strain 1002956 (lower line)
  MIC 1002956: 1.5 µM (≈ 4 µg/mL)
[2]; strain 1007660 (lower line)
  MIC 1007660: 1.5 µM (≈ 4 µg/mL)
[2]; strain 1010282 (lower line)
  MIC 1010282: 1.5 µM (≈ 4 µg/mL)
[2]; strain 1035166 (lower line)
  MIC 1035166: 1.5 µM (≈ 4 µg/mL)
A. baumannii strain 649
  MIC No serum: 1.5 µM (≈ 4 µg/mL)

## CC(=O)N[C@H](CCCCN)C(=O)N[C@H](CC(C)C)C(=O)N[C@@H](CN)C(=O)N[C@H](CO)C(=O)N[C@H](CC(C)C)C(=O)N[C@H](CC(C)C)C(=O)N[C@@H](CN)C(=O)N[C@@H](C(=O)N[C@H](CC(C)C)C(=O)N[C@H](CO)C(=O)N[C@@H](CN)C(=O)N[C@H](C)C(=O)N[C@H](CCCCN)C(=O)N[C@H](C)C(=O)N[C@H](C)C(=O)N[C@H](CCCCN)C(=O)N[C@H](CC(C)C)C(=O)N[C@@H](CN)C(=O)N[C@@H](C(=O)N[C@H](CC(C)C)C(=O)N[C@H](CC(C)C)C(=O)N[C@@H](CN)C(=O)N[C@H](C)C(=O)N[C@H](CC(C)C)C(=O)N[C@H](CO)C(=O)N[C@@H](CN)C(N)=O)[C@H](C)O)[C@H](C)O [D105(Lys^1-6Dap-1), Ac-KL(L-Dap)SLL(L-Dap)TLS(L-Dap)AKAAKL(L-Dap)TLL(L-Dap)ALS(L-Dap)-amide]
[1]; [4]
  MIC MB9941: 0.8 µM (≈ 2.09 µg/mL)
  MIC MB9949: 0.8 µM (≈ 2.09 µg/mL)
  MIC MB9951: 3.0 µM (≈ 7.84 µg/mL)
  MIC MB9952: 0.8 µM (≈ 2.09 µg/mL)
  MIC MB9953: 3.0 µM (≈ 7.84 µg/mL)
  MIC MB9963: 1.5 µM (≈ 3.92 µg/mL)
[2]; [5]
  MIC 101887: 0.8 µM (≈ 2.09 µg/mL)
  MIC 961997: 1.5 µM (≈ 3.92 µg/mL)
  MIC 963618: 0.8 µM (≈ 2.09 µg/mL)
  MIC 964304: 1.5 µM (≈ 3.92 µg/mL)
  MIC 977751: 0.8 µM (≈ 2.09 µg/mL)
  MIC 981653: 0.8 µM (≈ 2.09 µg/mL)
  MIC 1002956: 0.8 µM (≈ 2.09 µg/mL)
  MIC 1007660: 0.8 µM (≈ 2.09 µg/mL)
  MIC 1010282: 0.8 µM (≈ 2.09 µg/mL)
  MIC 1035166: 0.8 µM (≈ 2.09 µg/mL)
Human red blood cells
  HC50 Fold Improvement: >287
Human red blood cells; red cells of human, 18 h
  HC50: >1148 µM

## CC(=O)N[C@H](CCCCN)C(=O)N[C@H](CC(C)C)C(=O)N[C@@H](CCN)C(=O)N[C@H](CO)C(=O)N[C@H](CC(C)C)C(=O)N[C@H](CC(C)C)C(=O)N[C@@H](CCN)C(=O)N[C@@H](C(=O)N[C@H](CC(C)C)C(=O)N[C@H](CO)C(=O)N[C@@H](CCN)C(=O)N[C@H](C)C(=O)N[C@H](CCCCN)C(=O)N[C@H](C)C(=O)N[C@H](C)C(=O)N[C@H](CCCCN)C(=O)N[C@H](CC(C)C)C(=O)N[C@@H](CCN)C(=O)N[C@@H](C(=O)N[C@H](CC(C)C)C(=O)N[C@H](CC(C)C)C(=O)N[C@@H](CCN)C(=O)N[C@H](C)C(=O)N[C@H](CC(C)C)C(=O)N[C@H](CO)C(=O)N[C@H](CO)C(N)=O)[C@H](C)O)[C@H](C)O [D102(Lys^1Ser^26-5Dab-1), Ac-KL(L-Dab)SLL(L-Dab)TLS(L-Dab)AKAAKL(L-Dab)TLL(L-Dab)ALS(Ser)-amide]
[1]; [4]
  MIC MB9941: 0.4 µM (≈ 1.07 µg/mL)
  MIC MB9949: 0.7 µM (≈ 1.88 µg/mL)
  MIC MB9951: 0.7 µM (≈ 1.88 µg/mL)
  MIC MB9952: 0.7 µM (≈ 1.88 µg/mL)
  MIC MB9953: 1.4 µM (≈ 3.76 µg/mL)
  MIC MB9955: 0.7 µM (≈ 1.88 µg/mL)
  MIC MB9963: 0.7 µM (≈ 1.88 µg/mL)
[2]; [5]
  MIC 101887: 0.7 µM (≈ 1.88 µg/mL)
  MIC 961997: 1.5 µM (≈ 4.03 µg/mL)
  MIC 963618: 0.4 µM (≈ 1.07 µg/mL)
  MIC 964304: 0.7 µM (≈ 1.88 µg/mL)
  MIC 977751: 0.7 µM (≈ 1.88 µg/mL)
  MIC 981653: 0.4 µM (≈ 1.07 µg/mL)
  MIC 1002956: 0.4 µM (≈ 1.07 µg/mL)
  MIC 1007660: 0.4 µM (≈ 1.07 µg/mL)
  MIC 1010282: 0.7 µM (≈ 1.88 µg/mL)
  MIC 1035166: 0.7 µM (≈ 1.88 µg/mL)
Human red blood cells
  HC50 Fold Improvement: >177

## Ac-ELEKGGLEGEKGGKELEK-NH2 [random coil control peptide (RC)]
[3]
  binding result: no binding
